{
  "source": "patent US20130029362A1",
  "about": "“MARKERS AND ASSAYS FOR DETECTION OF NEUROTOXICITY” (priority 2010, published 2013)",
  "key": {"[1]": {"test_system": "Mouse, rat cortical or hippocampal primary neurons", "experiment": "In vitro drug candidate screening for neurotoxicity, ELISA of cell lysates", "type": "cell-based", "settings": "primary neurons 21 DIV, glutamate 30 min, other agents 24 hours", "description": "Mouse, rat cortical or hippocampal primary neurons are cultured for 21 DIV, and the dose dependent responses of drugs are investigated. Cultured cells are exposed to various concentrations of: Glutamate (0.01 to 1000 μM) in 10 μM glycine both in HBSS; B) 0.01 to 100 μM Kainate in culture media; C) H2O2 (0.001 to 1000 μM) in culture media; C) Zinc (0.01 to 1000 μM) in culture media; D) U0126 (0.001 to 100 μM) in culture media; and E) and equal volume of culture media as a control. Glutamate treatment is performed for 30 minutes after which the cells are washed and the HBSS is replaced with culture media and analyzed. The remaining candidates are treated for 24 hours and analyzed. The levels of intracellular UCH-L1 and SBDP 145 are analyzed following cell lysis and screening of the lysates by ELISA using anti-UCH-L1 and SBDP 145 specific antibodies. The levels of UCH-L1 are increased following exposure particularly to Glutamate and H2O2."}, "Male Sprague-Dawley rats [2]": {"test_system": "Male Sprague-Dawley rats", "experiment": "Kainic acid neurotoxicity rat model, Western blot of brain tissue for αII-spectrin and SBDPs", "type": "in vivo", "settings": "9 mg/kg s.c.; hippocampus and to a lesser extent cortex", "description": "(§1) Male Sprague-Dawley rats (Harlan: Indianapolis, Ind.) with weight from 180 to 200 g are used. The rats are allowed free access to a normal laboratory diet and chlorinated potable water. All rats are acclimated for at least one week to the housing facilities and diet before being used in the study. The controls in the animal room are set to maintain a temperature of 20° C. to 24° C. and 30% to 70% relative humidity. Rats are maintained on a twelve-hour light/dark cycle.\n(§2) Animals received single subcutaneous injections of Kaininc acid (Sigma, Chemical, St. Louis, Mo., USA) at dose 9 mg/kg and sacrificed at 24 h after injection. Separate control/treatment groups of animals are used. Brain tissues and CSF sample are collected at 6, 24, 48 and 72 h time points after injection.\n(§3) At the appropriate time points, animals are anesthetized with 4% isoflurane in oxygen as a carrier gas for 4 minutes, followed by maintenance anesthesia of 2-3% isoflurane in the same carrier gas. The rats are placed in a stereotaxic instrument and about 100 μl of CSF from the cisterna magna of each animal is collected transcutaneously through 25 gauge needle attached to polyethylene tubing. CSF samples are frozen on dry ice immediately after collection. After CSF collection animals are removed from the stereotaxic instrument and anesthesia nose cone and the animal, still under anesthesia, is immediately sacrificed by decapitation. Cortex, hippocampus, cerebellum and striatum will be rapidly dissected out, rinsed in cold PBS and snap frozen in liquid nitrogen. To obtain brain tissue for IHC animals are euthanized with lethal dose of pentobarbital, transcardically perfused with 4% paraformaldehyde and whole brains are removed, processed and embedded in paraffin.\nAfter SDS-gel electrophoresis in Tris-glycine buffer system and electrotransfer, blotting membranes are blocked for 1 hour at ambient temperature in 5% non-fat milk in Tris-buffered saline (TBS) and then in TBS containing 0.05% […] (TBST), then incubated in primary monoclonal anti-αII-spectrin antibodies (Biomol, Plymouth Meeting, Pa., USA) diluted ˜1:3000 (3.5 ul/10 ml) in PBS as recommended by the manufacturer at 4° C. overnight. […] Molecular weight of intact αll-spectrin protein and αll-spectrin breakdown products (SBDPs) are assessed by running alongside rainbow colored molecular weight standards (Amersham, Cat # RPN800V). Semi-quantitative evaluation of levels of αll-spectrin and of its breakdown products SBDP150 and SBDP145 and SBDP120 is performed using computer-assisted high-resolution flatbed scanner Epson XL3500 and densitometric image analysis with Image J software (NIH). […]"}, "Male Sprague-Dawley rats [3]": {"test_system": "Male Sprague-Dawley rats", "experiment": "Kainic acid neurotoxicity rat model, immunohistochemistry of brain sections", "type": "in vivo", "description": "as §1, §2, §3\nIHC is performed on paraffin-embedded 6 μm brain sections. Slides are deparaffinized, incubated for 10 min at 95° C. in Trilogy solution (Cell Marque, Hot Springs, Ak.) for antigen retrieval, blocked for endogenous peroxides and incubated with 1 Abs (GFAP, SBDP145, SBDP150, SBDP120 and Casp 3) overnight at 4° C. followed by treatments with secondary Abs (LSAB+, # K0679, Dako). The staining is visualized with 3,3′-diaminobenzidine (DAB) (Dako, Carpinteria, Calif.) for brown color development. Sections are counterstained with Hematoxylin (Dako, Carpinteria, Calif.). Negative controls are performed by treatment only with species-matched secondary antibodies."}, "Male Sprague-Dawley rats [4]": {"test_system": "Male Sprague-Dawley rats", "type": "in vivo, rat", "settings": "9 mg/kg s.c., compared with control group", "description": "as §1, §2, §3\nSerum and CSF sample concentrations of UCH-L1 are measured using a UCH-L1 sandwich enzyme-linked immunosorbent assay (ELISA) version lb modified from a protocol previously reported (Papa L. et al., 2010; Liu M. et al., 2009). Both mouse monoclonal antibody (capture antibody) and rabbit polyclonal antibody (detection antibody) are made in-house against recombinant human UCH-L1 full length protein and partial protein respectively). Both are affinity purified using target-protein-based affinity column. Their specificity to only target protein (UCH-L1) is confirmed by immunoblotting. Reaction wells are coated with capture antibody (5 μg/mL purified mouse monoclonal anti-human UCHL1) in 0.05 M sodium bicarbonate, pH 9.6 and incubated overnight at 4° C. […] Finally, the wells are developed with substrate solution: Ultra-TMB ELISA 100 μL/well (Pierce #34028) with incubation for 10 min, plate read at 450 nm with a 96-well spectrophotometer (Molecular Device Spectramax 190).\nSerum and CSF sample concentrations of GFAP are measured using a GFAP sandwich enzyme-linked immunosorbent assay (ELISA) version 2a. […]"}, "rats": {"test_system": "rats", "experiment": "Kainic acid neurotoxicity rat model, biomarkers in blood plasma", "type": "in vivo", "settings": "process of Example 5 with blood plasma in lieu of CSF; as a function of time", "description": "The process of Example 5 is repeated with blood plasma as the subject sample source the rats in lieu of CSF."}, "[5]": {"test_system": "Female Sprague-Dawley rats", "experiment": "Acute in vivo drug candidate screening for neurotoxicity, biofluid biomarkers by sandwich ELISA or Western blot", "settings": "rat, i.p., 30, 60, 90, 120 minutes following dosing, methamphetamine 40 mg/kg", "description": "Anesthesia is performed with intraperitoneal injections of pentobarbital (50 mg/kg). The test substance can also be administered in a single dose by gavage using a stomach tube or a suitable intubation cannula. Animals are fasted prior to dosing. A total of four to eight animals of are used for each dose level investigated.\n30, 60, 90, and 120 minutes following dosing, the rats are sacrificed by decapitation and blood is obtained by cardiac puncture. The levels of biofluid UCH-L1 and SBDP 150 and GFAP are analyzed by sandwich ELISA or Western blot by using UCH-L1 and SBDP 150 and GFAP specific antibodies."}, "[6]": {"settings": "9 mg/kg s.c., hippocampus and cortex, vs control group"}},
  "data": [
    {"smiles": "N[C@@H](CCC(=O)O)C(=O)O", "note": "[Glutamate]", "values": [
      {"measurement": "levels of intracellular UCH-L1", "setting": "[1]", "value": "increased"}
    ]},
    {"smiles": "OO", "note": "[H2O2]", "values": [
      {"measurement": "levels of intracellular UCH-L1", "setting": "[1]", "value": "increased"}
    ]},
    {"smiles": "C=C(C)[C@H]1CN[C@H](C(=O)O)[C@H]1CC(=O)O", "note": "[KA, Kainic acid]", "values": [
      {"measurement": "SBDP120 breakdown fragment produced by caspase-3 (Western blot)", "setting": "Male Sprague-Dawley rats [2]", "value": "appearance"},
      {"measurement": "SBDP145 breakdown fragment produced by calpain (Western blot)", "setting": "Male Sprague-Dawley rats [2]", "value": "appearance"},
      {"measurement": "SBDP150 breakdown fragment produced by calpain (Western blot)", "setting": "Male Sprague-Dawley rats [2]", "value": "appearance"},
      {"measurement": "intact αII-spectrin level (Western blot)", "setting": "Male Sprague-Dawley rats [2]", "value": "decrease"},
      {"measurement": "level of GFAP (IHC)", "setting": "Male Sprague-Dawley rats [3]; [6]", "value": "increased level"},
      {"measurement": "level of SBDP120 (IHC)", "setting": "Male Sprague-Dawley rats [3]; [6]", "value": "increased level"},
      {"measurement": "level of SBDP145 (IHC)", "setting": "Male Sprague-Dawley rats [3]; [6]", "value": "increased level"},
      {"measurement": "level of SBDP150 (IHC)", "setting": "Male Sprague-Dawley rats [3]; [6]", "value": "increased level"},
      {"measurement": "level of αII-spectrin breakdown products (histology images)", "setting": "Male Sprague-Dawley rats [3]; hippocampus of KA treated rats, FIG. 5", "value": "increased level"},
      {"measurement": "level of activated Caspase-3 (histology images)", "setting": "Male Sprague-Dawley rats [3]; hippocampus of KA treated rats, FIG. 7", "value": "increased level"},
      {"measurement": "SBDP120 in CSF (ELISA)", "setting": "Male Sprague-Dawley rats [4]", "value": "buildup"},
      {"measurement": "SBDP145 in CSF (ELISA)", "setting": "Male Sprague-Dawley rats [4]", "value": "buildup"},
      {"measurement": "SBDP150 in CSF (ELISA)", "setting": "Male Sprague-Dawley rats [4]", "value": "buildup"},
      {"measurement": "expression of GFAP in CSF (ELISA)", "setting": "Male Sprague-Dawley rats [4]", "value": "increase"},
      {"measurement": "expression of UCHL 1 in CSF (ELISA)", "setting": "Male Sprague-Dawley rats [4]", "value": "increase"},
      {"measurement": "Biomarker levels in blood plasma (UCHL 1, GFAP, NF-H)", "setting": "rats", "value": "elevated"}
    ]},
    {"smiles": "CN[C@@H](C)Cc1ccccc1", "note": "[methamphetamine]", "values": [
      {"measurement": "biofluid GFAP level relative to control animals", "setting": "[5]", "value": "increased"},
      {"measurement": "biofluid SBDP 150 level relative to control animals", "setting": "[5]; cisplatin 10 mg/kg", "value": "increased"},
      {"measurement": "biofluid UCH-L1 level relative to control animals", "setting": "[5]; cisplatin 10 mg/kg", "value": "increased"}
    ]}
  ]
}
